± gives the expanded uncertainty stated by the source.
Experiment: xn = mol fraction of the nth substance listed
Conditions: 101.3 kPa, Liquid

CCCO [propan-1-ol] + ClC(Cl)Cl
x1 = 1
Conditions	mass density [kg/m3]
288.15 K	807.69 ± 0.25
293.15 K	803.703 ± 0.25
298.15 K	799.692 ± 0.25
303.15 K	795.65 ± 0.26
308.15 K	791.576 ± 0.26
313.15 K	787.466 ± 0.26

c1ccccc1 [benzene] + CCCO
mass density [kg/m3]
Conditions	288.15 K	293.15 K	298.15 K	303.15 K	308.15 K	313.15 K
x2 = 0	884.246 ± 0.16	878.918 ± 0.17	873.582 ± 0.17	868.233 ± 0.17	862.871 ± 0.18	857.498 ± 0.18
x2 = 0.022	882.511 ± 0.16	877.177 ± 0.17	871.937 ± 0.17	866.489 ± 0.18	861.124 ± 0.18	855.764 ± 0.18
x2 = 0.0557	880.03 ± 0.17	874.714 ± 0.17	869.383 ± 0.17	864.034 ± 0.18	858.669 ± 0.18	853.296 ± 0.19
x2 = 0.0984	876.959 ± 0.17	871.673 ± 0.17	866.369 ± 0.18	861.047 ± 0.18	855.699 ± 0.18	850.343 ± 0.19
x2 = 0.1632	872.435 ± 0.17	867.203 ± 0.18	861.955 ± 0.18	856.682 ± 0.18	851.38 ± 0.19	846.063 ± 0.19
x2 = 0.2186	868.541 ± 0.18	863.367 ± 0.18	858.172 ± 0.18	852.95 ± 0.19	847.699 ± 0.19	842.427 ± 0.2
x2 = 0.2385	867.148 ± 0.18	861.999 ± 0.18	856.826 ± 0.19	851.625 ± 0.19	846.396 ± 0.19	841.156 ± 0.2
x2 = 0.3046	862.546 ± 0.18	857.468 ± 0.19	852.368 ± 0.19	847.234 ± 0.19	842.067 ± 0.2	836.875 ± 0.2
x2 = 0.3993	855.836 ± 0.19	850.881 ± 0.19	845.896 ± 0.2	840.877 ± 0.2	835.823 ± 0.2	830.744 ± 0.21
x2 = 0.4505	852.174 ± 0.19	847.288 ± 0.2	842.37 ± 0.2	837.417 ± 0.2	832.428 ± 0.21	827.425 ± 0.21
x2 = 0.5023	848.393 ± 0.2	843.581 ± 0.2	838.736 ± 0.21	833.856 ± 0.21	828.935 ± 0.21	823.986 ± 0.22
x2 = 0.6035	840.846 ± 0.21	836.186 ± 0.21	831.492 ± 0.21	826.762 ± 0.22	821.989 ± 0.22	817.183 ± 0.23
x2 = 0.66	836.494 ± 0.21	831.916 ± 0.22	827.312 ± 0.22	822.69 ± 0.22	817.981 ± 0.23	813.261 ± 0.23
x2 = 0.7035	833.115 ± 0.22	828.615 ± 0.22	824.081 ± 0.22	819.512 ± 0.23	814.9 ± 0.23	810.256 ± 0.23
x2 = 0.7453	829.801 ± 0.22	825.366 ± 0.22	820.902 ± 0.23	816.4 ± 0.23	811.856 ± 0.23	807.285 ± 0.24
x2 = 0.8016	825.211 ± 0.23	820.875 ± 0.23	816.507 ± 0.23	812.105 ± 0.24	807.61 ± 0.24	803.184 ± 0.24
x2 = 0.8447	821.474 ± 0.23	817.209 ± 0.23	812.998 ± 0.24	808.593 ± 0.24	804.229 ± 0.24	799.833 ± 0.25
x2 = 0.8981	816.954 ± 0.24	812.786 ± 0.24	808.589 ± 0.24	804.36 ± 0.24	800.093 ± 0.25	795.804 ± 0.25
x2 = 0.9495	812.375 ± 0.24	808.313 ± 0.24	804.141 ± 0.25	800.008 ± 0.25	795.838 ± 0.25	791.644 ± 0.26
